In PubChem BioAssay (NCI) one finds TGI data, which are given here for seven compounds.

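Following 48 hours of exposure in 96-well plates, responses at five concentrations were used to interpolate endpoints linearly. At the TGI there is no net growth.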

Among the test systems are SR leukemia; A498 renal; UO-31 renal; SNB-75 CNS; LOX IMVI melanoma; M14 melanoma; HS 578T breast; SK-OV-3 ovarian; MOLT-4 leukemia; SN12C renal; PC-3 prostate; NCI-H23 lung; EKVX NSCLC; HOP-62 NSCLC; SK-MEL-5 melanoma; MALME-3M melanoma; CCRF-CEM leukemia; NCI-H522 lung.
Common to all, as to assay: NCI anticancer screen, dose series, 48 h

As to `ClC1(Cl)C(c2ccccc2)C1c1ccccc1` (configuration not stated), the TGI in the experiment with SR leukemia is 55.4 µM; in the experiment with A498 renal, > 100 µM; with UO-31 renal it was > 100 µM; with SNB-75 CNS, > 100 µM; with LOX IMVI melanoma, 93 µM; in the experiment on M14 melanoma it was 90.7 µM. Besides, the TGI in the experiment on HS 578T breast is > 100 µM; in the experiment on SK-OV-3 ovarian, 55.7 µM; in the experiment on MOLT-4 leukemia, > 100 µM; with SN12C renal, > 100 µM; with PC-3 prostate, > 100 µM; in the experiment on NCI-H23 lung it was 76.8 µM. Moreover, the figures for the TGI in the experiment with EKVX NSCLC and in the experiment with HOP-62 NSCLC were 53.1 µM and > 100 µM, respectively.
Turning to `COC(=O)C1=C(O)C(C(=O)OC)[C@]2(O)[C@H](C(=O)OC)[C@H]1C[C@@H](c1ccc(F)cc1)[C@H]2C(=O)OC` (some centres not stated), the TGI with SR leukemia turned out to be 47.5 µM; with SK-MEL-5 melanoma, 25.2 µM; in the experiment on A498 renal, 35.1 µM; in the experiment on UO-31 renal, 29.1 µM; in the experiment on SNB-75 CNS, 73.2 µM; in the experiment on LOX IMVI melanoma, 42.1 µM. Besides, the TGI with M14 melanoma is 27.5 µM; with HS 578T breast, 81.8 µM; in the experiment on MALME-3M melanoma, 28 µM; in the experiment with SK-OV-3 ovarian it was 77.6 µM; in the experiment with MOLT-4 leukemia, > 100 µM; in the experiment with CCRF-CEM leukemia it was 70.7 µM. The TGI is 26.3 µM in the experiment on SN12C renal; 33.2 µM in the experiment with PC-3 prostate; 31 µM with NCI-H23 lung; 41.3 µM in the experiment with EKVX NSCLC; 68.5 µM in the experiment on HOP-62 NSCLC.
Take `CSc1nc(C)c2c(n1)SCC2`: the TGI in the experiment on SR leukemia, in the experiment with SK-MEL-5 melanoma, with A498 renal, with UO-31 renal, in the experiment on SNB-75 CNS and in the experiment on LOX IMVI melanoma was > 10 µM each time. Moreover, the TGI in the experiment on M14 melanoma, in the experiment on HS 578T breast, with MALME-3M melanoma, in the experiment with SK-OV-3 ovarian, with MOLT-4 leukemia and with CCRF-CEM leukemia was > 10 µM each time. Moreover, the TGI in the experiment with SN12C renal, in the experiment with PC-3 prostate, with NCI-H23 lung, in the experiment on EKVX NSCLC and in the experiment with HOP-62 NSCLC was > 10 µM throughout.
In the case of `COc1cc(/C=C(\C#N)c2nc3ccccc3o2)ccc1O`, the TGI in the experiment with SR leukemia was > 100 µM; in the experiment on SK-MEL-5 melanoma, 36.3 µM; with NCI-H522 lung it was 27.8 µM; with A498 renal it was 34.8 µM; in the experiment with UO-31 renal it was 85.9 µM; in the experiment with M14 melanoma, 54.6 µM. The TGI with HS 578T breast was 75.2 µM; with MALME-3M melanoma, 56.3 µM; in the experiment on SK-OV-3 ovarian, 36.7 µM; in the experiment on MOLT-4 leukemia, > 100 µM; in the experiment on CCRF-CEM leukemia, > 100 µM; in the experiment with SN12C renal, > 100 µM. Also, the TGI with PC-3 prostate was 66.4 µM; in the experiment on NCI-H23 lung it was 70 µM; with EKVX NSCLC, 49.6 µM; in the experiment on HOP-62 NSCLC it was 52.8 µM.
For the compound `CCN(CC)C(=C(C(Cl)=C(Cl)Cl)[N+](=O)[O-])N(CC)CC`, the TGI in the experiment on SR leukemia, with SK-MEL-5 melanoma, with A498 renal, with UO-31 renal, in the experiment with SNB-75 CNS and with LOX IMVI melanoma was > 100 µM each time. For the same compound, the TGI was > 100 µM in the experiment on M14 melanoma; 68.5 µM in the experiment with HS 578T breast; 91.6 µM in the experiment on MALME-3M melanoma; > 100 µM with SK-OV-3 ovarian; > 100 µM in the experiment on MOLT-4 leukemia; > 100 µM with CCRF-CEM leukemia. The TGI in the experiment with SN12C renal, in the experiment on PC-3 prostate, with NCI-H23 lung, in the experiment with EKVX NSCLC and in the experiment on HOP-62 NSCLC was > 100 µM throughout.
For the compound `COc1cc(C2SCC(=O)N2c2ccccc2Cl)cc(OC)c1OC` (configuration not stated), the TGI with SR leukemia, in the experiment on SK-MEL-5 melanoma, in the experiment on NCI-H522 lung, in the experiment on A498 renal, in the experiment with UO-31 renal and with LOX IMVI melanoma was > 100 µM throughout. Further, the TGI in the experiment on M14 melanoma, in the experiment with HS 578T breast, in the experiment on SK-OV-3 ovarian, with CCRF-CEM leukemia, in the experiment on SN12C renal and with PC-3 prostate was > 100 µM in each case. Moreover, the TGI in the experiment on NCI-H23 lung and in the experiment with EKVX NSCLC was > 100 µM in each case.
Consider `CN(C)c1ccc(/C=N\NC(=O)c2ccccc2Nc2ccccc2C(=O)N/N=C/c2ccc(N(C)C)cc2)cc1`, for which the TGI in the experiment on SR leukemia, in the experiment on SK-MEL-5 melanoma, in the experiment on A498 renal, with UO-31 renal, with SNB-75 CNS and with LOX IMVI melanoma was > 100 µM throughout. Besides, the TGI in the experiment on M14 melanoma was 95.9 µM; in the experiment with HS 578T breast, > 100 µM; in the experiment on MALME-3M melanoma it was 98 µM; with SK-OV-3 ovarian, > 100 µM; in the experiment with MOLT-4 leukemia it was > 100 µM; in the experiment on CCRF-CEM leukemia, > 100 µM. Moreover, the TGI with SN12C renal, with PC-3 prostate, in the experiment on NCI-H23 lung, in the experiment with EKVX NSCLC and with HOP-62 NSCLC was > 100 µM each time.
